Laboratory results reported in US20180064742A1, “PET IMAGING TRACER FOR IMAGING PROSTATE CANCER” (THE REGENTS OF THE UNIVERSITY OF CALIFORNIA, priority 2015, published 2018).

Tested on: tumors
Assay: In vivo accumulation in tumors versus benign tissue, with tumor alkalinization models
Source text: Solid tumors are hypoxic with altered metabolism, resulting in secretion of acids into the extracellular matrix and lower relative pH, a feature associated with local invasion and metastasis. Therapeutic and diagnostic agents responsive to this microenvironment may improve tumor-specific delivery. In various embodiments, the invention reflects a general strategy whereby caged small-molecule drugs or imaging agents liberate their parent compounds in regions of low interstitial pH. In this manuscript, we present a new acid-labile prodrug method based on the glycosylamine linkage, and its application to a class of positron emission tomography (PET) imaging tracers, termed [^18F] fluorodeoxyglycosyl amines ([^18F] FDG amines). [^18F]FDG amines operate via a proposed two-step mechanism, in which an acid-labile precursor decomposes to form a common radiotracer, e.g., 2-deoxy-2-[18F]fluoro-D-glucose, which is subsequently accumulated by glycan, e.g., glucose, avid cells. […]
Imaging was performed using standard micro-positron emission tomography (microPET) techniques and data analysis. […] The resulting images are analyzed using open source Amide software (FIGS. 6, 13). For quantification of uptake in tissues, regions of interest (ROI) are drawn over tissues using the CT portion of the exam. […]

## OC[C@H]1OC(NCc2ccc(-c3ccccc3)cc2)[C@H]([18F])[C@@H](O)[C@@H]1O (some centres unmarked)
In vivo
  relative accumulation in tumors over benign tissue: greater relative accumulation in tumors over benign tissue
Sodium bicarbonate treatment, or overexpression of carbonic anhydrase
  effect of tumor alkalinization on tumor accumulation: could be attenuated upon tumor alkalinization
